Molecules are shown by their SMILES. Like-named read-outs stand apart in the source and are kept apart here.

For one experiment, the target named is T1, L-Lactate Oxidase (Enterococcus casseliflavus, UniProt C9AC47).
T1 sequence (C9AC47 1-367): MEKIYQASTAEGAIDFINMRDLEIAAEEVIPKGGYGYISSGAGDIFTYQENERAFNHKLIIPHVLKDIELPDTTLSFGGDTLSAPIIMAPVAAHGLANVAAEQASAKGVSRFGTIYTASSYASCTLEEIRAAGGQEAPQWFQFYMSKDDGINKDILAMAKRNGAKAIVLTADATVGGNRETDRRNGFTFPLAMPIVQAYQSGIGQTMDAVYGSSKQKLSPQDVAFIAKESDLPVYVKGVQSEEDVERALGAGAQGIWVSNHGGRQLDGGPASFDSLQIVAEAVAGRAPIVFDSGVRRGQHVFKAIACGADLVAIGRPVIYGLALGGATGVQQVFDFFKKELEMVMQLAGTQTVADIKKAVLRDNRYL
Kind of experiment: biochemical. The note with it: for inhibition at 10000 µM: acid 10mM, read-out: LO % Inhibition; for inhibition of the enzymatic activity of lactate oxidase: measured at 30° C. The method, then:
(§1) In the examples, oxidative enzymes were prepared from Streptococcus faecium ATCC 12755. L-lactate oxidase was isolated from Streptococcus faecium as a 0-50% ammonium sulfate fraction as described in Esders et al., U.S. Pat. No. 4,166,763 issued Sept. 4, 1979. L-α-glycerophosphate oxidase was purified from Streptococcus faecium as described in Table V, of Research Disclosure Publication No. 16146 published Sept. 10, 1977.
In the examples, enzyme assays for lactate oxidase were carried out as follows: Assay reaction mixtures contained in a total volume of 1.0 ml: 100 μmoles potassium phosphate buffer, pH 7.0, 25 μmoles lactic acid, […] horseradish peroxidase (4.6 purpurogallin units), and 0.25 μmoles orthodianisidine. Compounds to be tested as potential inhibitors for lactate oxidase were added to the assay reaction mixtures as indicated in Example 1. Samples were equilibrated at 30° C. and then reactions were initiated by addition of Streptococcus faecium lactate oxidase. Absorbance at 430 nm was measured in a Beckman 25 spectrophotometer. Initial rates were calculated from the linear portion of the curve.

For experiment [1], the target named is T2, L-α-Glycerophosphate Oxidase (Enterococcus casseliflavus, UniProt O86963).
T2 construct: L-α-glycerophosphate oxidase was purified from Streptococcus faecium; made in house; host or cells: Streptococcus faecium ATCC 12755 (native organism, not recombinant)
T2 sequence (O86963 1-609): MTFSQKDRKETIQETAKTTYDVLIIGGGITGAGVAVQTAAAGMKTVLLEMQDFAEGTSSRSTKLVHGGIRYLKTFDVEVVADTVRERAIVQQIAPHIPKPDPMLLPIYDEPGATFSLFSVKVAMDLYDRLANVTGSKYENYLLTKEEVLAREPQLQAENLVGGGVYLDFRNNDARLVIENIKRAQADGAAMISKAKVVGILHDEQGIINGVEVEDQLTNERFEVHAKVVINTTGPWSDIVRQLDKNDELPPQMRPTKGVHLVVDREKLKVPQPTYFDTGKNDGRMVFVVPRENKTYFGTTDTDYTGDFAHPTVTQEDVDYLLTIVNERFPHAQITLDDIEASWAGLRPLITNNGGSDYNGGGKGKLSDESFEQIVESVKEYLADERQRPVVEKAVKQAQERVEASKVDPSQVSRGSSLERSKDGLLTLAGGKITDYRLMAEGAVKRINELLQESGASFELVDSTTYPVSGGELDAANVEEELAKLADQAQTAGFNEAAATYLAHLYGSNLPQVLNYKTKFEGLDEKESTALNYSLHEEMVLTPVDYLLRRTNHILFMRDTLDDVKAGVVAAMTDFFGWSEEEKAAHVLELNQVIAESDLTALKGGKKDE
Kind of experiment: L-α-glycerophosphate oxidase enzyme assay (absorbance at 430 nm). It is filed as biochemical. Particulars: for inhibition at 5000 µM: compound at 5 mM, 37° C., pH 7.0, read-out: L-α-Glycerophosphate Oxidase Percent Inhibition. The method, then: as §1, with “1977. Extensively purified L-α-glycerophosphate oxidase (material carried through the whole purification sequence) contained L-α-glycerophosphate:lactate oxidase activity ratios of (1700-3000:1), whereas the partially purified L-α-glycerophosphate oxidase (material isolated as the 50-80% ammonium sulfate fraction) contained L-α-glycerophosphate:lactate oxidase activity ratios of 30-100:1.” for “1977.”
In the examples, enzyme assays for L-α-glycerophosphate oxidase were carried out as follows: Assay reaction mixtures contained in a total volume of 1.0 ml: 100 μmoles potassium phosphate buffer, pH 7.0, 66 μg orthodianisidine, 25 μg horseradish peroxidase (4.6 purpuragallin units) and 200 μmoles DL-α-glycerophosphate (at pH 7.0). Compounds to be tested as potential inhibitors were added to the reaction mixtures as indicated in Example 1. Samples were equilibrated at 37° C. and the reactions were initiated by the addition of an aliquot of enzyme. Absorbance at 430 nm was measured in a Beckman 25 spectrophotometer. Initial rates were calculated from the linear portion of the curve.

Experiment [2] deals with T3, beef meat lactate dehydrogenase (Bos taurus, UniProt P19858).
T3 construct: beef meat lactate dehydrogenase; from tissue; host or cells: beef meat (skeletal muscle)
Kind of experiment: LDH assay reaction mixture (pyruvate/NADH). It is filed as biochemical. Particulars: acid 10 mM; pH 7.5. The method, then:
The effect of these acids on LO was evaluated by studying an LO assay reaction mixture having the composition described above. The effect of these acids on LDH was evaluated by studying an LDH assay reaction mixture which contained in a total volume of 1.0 ml: 50 μmoles potassium phosphate buffer (pH 7.5); 1 μmole sodium pyruvate; 0.13 μmole NADH; 0.02 μg beef meat lactate dehydrogenase (320 U/mg) and the acid at a concentration of 10 mM. In the absence of acid, the rate of reaction was assumed to be 100% and the percent inhibition of each reaction was calculated accordingly.

Setting [3] is: compound at 5 mM, 30° C., pH 7.0, rate without compound = 100%, read-out: L-Lactate Oxidase Percent Inhibition.
The mark [4] stands for this setting: pH 7, read-out: L-Lactate Oxidase Percent Inhibition.

For `O=C(O)C(O)C(=O)O` [Tartronic Acid], the inhibition at 5000 µM at L-Lactate Oxidase (setting [3]) worked out at 10%.

On to `O=C(O)C(=O)O` [Oxalic Acid], for which, at L-Lactate Oxidase, the “inhibition of lactate oxidase activity (in words)” value is listed as “greatly inhibit” and the inhibition at 10000 µM came out at 94%. Further, at L-Lactate Oxidase (setting [3]), the inhibition at 5000 µM was 94%. In experiment [1], the “inhibition of L-α-GPO (in words)” value is “do not inhibit” and the inhibition at 5000 µM stood at 0%. For the same compound, the inhibition at 10000 µM in experiment [2] worked out at 100%.

Regarding `CCC(O)C(=O)O` (stereo not drawn) [α-Hydroxybutyric Acid], the inhibition at 5000 µM on L-Lactate Oxidase (setting [3]) is 7%. Also, the “inhibition of the enzymatic activity of lactate oxidase” value against L-Lactate Oxidase is listed as less than 50%.

With `NC(=O)C(N)=O` [Oxamide], the inhibition at 5000 µM at L-Lactate Oxidase (setting [3]) was 43%. Also, on L-Lactate Oxidase, the “inhibition of the enzymatic activity of lactate oxidase” value was less than 50%.

For the compound `O=C(O)CC(=O)O` [Malonic Acid], the inhibition at 5000 µM on L-Lactate Oxidase (setting [3]) was found to be 30%. Moreover, at L-Lactate Oxidase, the “inhibition of the enzymatic activity of lactate oxidase” value is less than 50%.

Turning to `O=C(O)CCC(=O)C(=O)O` [α-Ketoglutaric Acid], the “inhibition of lactate oxidase activity (in words)” value against L-Lactate Oxidase is recorded as “little or no inhibition”. Also, the inhibition at 5000 µM on L-Lactate Oxidase (setting [4]) is 0%.

Take `NC(=O)C(=O)O` [Oxamic Acid]: the inhibition at 5000 µM at L-Lactate Oxidase (setting [3]) was 40%. In addition, on L-Lactate Oxidase, the “inhibition of the enzymatic activity of lactate oxidase” value is given as less than 50%.

With `O=CC(=O)O` [Glyoxalic Acid], the “inhibition of lactate oxidase activity (in words)” value at L-Lactate Oxidase is reported as “inhibited the enzyme”. Also, the values for the inhibition at 10000 µM (on L-Lactate Oxidase; in experiment [2]) were 100% and 15%, respectively. The inhibition at 5000 µM (on L-Lactate Oxidase (setting [3]); in experiment [1]) was 100% throughout. The “inhibition of L-α-GPO (in words)” value in experiment [1] is “inhibited L-α-GPO as well”.

On to `CC(O)CC(=O)O` (stereo not drawn) [β-Hydroxybutyric Acid], for which, at L-Lactate Oxidase, the “inhibition of lactate oxidase activity (in words)” value is on record as “little or no inhibition”. Moreover, on L-Lactate Oxidase (setting [3]), the inhibition at 5000 µM turned out to be 0%.

As to `O=C(O)C(O)CO` (racemic) [Glyceric Acid], the inhibition at 5000 µM on L-Lactate Oxidase (setting [3]) amounted to 21%. The “inhibition of the enzymatic activity of lactate oxidase” value against L-Lactate Oxidase is given as less than 50%.

Turning to `NCC(=O)O` [Glycine], the “inhibition of lactate oxidase activity (in words)” value at L-Lactate Oxidase is “little or no inhibition”. For the same compound, the inhibition at 5000 µM at L-Lactate Oxidase (setting [4]) was found to be 0%.

Regarding `CC(O)C(N)=O` (centres unmarked) [Lactamide], at L-Lactate Oxidase, the “inhibition of lactate oxidase activity (in words)” value was “little or no inhibition”. The inhibition at 5000 µM on L-Lactate Oxidase (setting [3]) was 0%.

Consider `O=C(O)CC(O)C(=O)O` (centres unmarked) [Malic Acid], for which, at L-Lactate Oxidase, the “inhibition of lactate oxidase activity (in words)” value is listed as “little or no inhibition”. The inhibition at 5000 µM on L-Lactate Oxidase (setting [3]) was determined as 0%.

For the compound `COCC(=O)O` [Methoxyacetic Acid], the “inhibition of lactate oxidase activity (in words)” value against L-Lactate Oxidase was “little or no inhibition”. The inhibition at 5000 µM on L-Lactate Oxidase (setting [4]) stood at 0%.

In general, inhibition refers to how much of the control response was suppressed.
